Source: paper PMC4821887, “Identification of chemicals that mimic transcriptional changes associated with autism, brain aging and neurodegeneration” (Nature Communications, 2016)

Tested on: mouse cortical cultures
Experiment: RNA-seq differential expression (DESeq) against matched vehicle
Type: cell-based
Set-up: key to MeanFenamidone Bcl11b / MeanFenamidone Slc12a4 / MeanFenamidone Abca1 / MeanFenamidone Hmox1 / MeanFenamidone Il1rap / MeanFenamidone Cyba / MeanFenamidone Narf / MeanFenamidone Bnip3 / MeanFenamidone Amotl2 / MeanFenamidone Gad2 / MeanFenamidone Vsnl1 / MeanFenamidone Fam178a: DESeq mean of counts over RefSeq exons
Description: Figure 4 Cluster 2 chemicals alter expression of a common set of genes. […] RNA-seq was performed in quadruplicate after treating cortical cultures with fenamidone (10 μM) or pyraclostrobin (0.1 μM) for 24 h (n=3 biological replicates) and compared with matched vehicle controls using DESeq to detect differentially expressed genes, listed in Supplementary Data 4.
Cultures were treated with the non-cytotoxic dose of each chemical, by exchanging half of the original medium with chemicals at 2 × concentration in prewarmed feeding medium, on DIV 7 for 24 h in 12-well plates at a density of 5 × 10^5 cells per well. RNA was isolated using RNeasy plus mini kit (Cat. #74134, Qiagen). […]. Samples were further assessed for quality using either an Agilent Bioanalyzer 2100 or TapeStation 2200 to obtain a RIN. RIN values exceeding 7 were used for sequencing. RNA samples were used to generate and barcode complementary DNA libraries using the TruSeq RNA Library Preparation Kit at the UNC High Throughput Sequencing Facility. Pools of 24 multiplexed samples were sequenced per lane on an Illumina HiSeq 2500 using 50-bp paired-end reads.
RNA-seq reads were filtered using TagDust and aligned to the reference mouse genome (mm9) with TopHat using default parameters. Reads aligning to ribosomal RNA genes were removed. Transcript abundance was estimated by computing Reads per kilobase per million mapped reads (RPKM) using RefSeq gene models aggregated by gene symbol. For differential expression analyses, raw counts over RefSeq exons were used, and then were compared across samples using DESeq[62].

CSC1=N[C@@](C)(c2ccccc2)C(=O)N1Nc1ccccc1 [fenamidone]
MeanFenamidone (gene Dclk1): 2436.98
log2FoldChange (gene Dclk1): -1.095
MeanFenamidone (gene Dcxr): 235.507
log2FoldChange (gene Dcxr): 3.058
MeanFenamidone (gene Diras1): 170.873
log2FoldChange (gene Diras1): -1.25
MeanFenamidone (gene Dlg2): 695.294
log2FoldChange (gene Dlg2): -1.3121
MeanFenamidone Dlx1as (gene Dlx1as, DESeq mean, 4 reps): 22.8822
log2FoldChange Dlx1as (gene Dlx1as, vs vehicle, 4 reps): -2.397
MeanFenamidone (gene Dnaja1): 313.407
log2FoldChange (gene Dnaja1): -1.061
MeanFenamidone Dnm3 (gene Dnm3, DESeq mean, 4 reps): 187.1
log2FoldChange Dnm3 (gene Dnm3, vs vehicle, 4 reps): -1.706
MeanFenamidone Dpp10 (gene Dpp10, DESeq mean, 4 reps): 62.8613
log2FoldChange Dpp10 (gene Dpp10, vs vehicle, 4 reps): -1.776
MeanFenamidone Dzank1 (gene Dzank1, DESeq mean, 4 reps): 112.179
log2FoldChange Dzank1 (gene Dzank1, vs vehicle, 4 reps): -1.428
MeanFenamidone Eda2r (gene Eda2r, DESeq mean, 4 reps): 436.944
log2FoldChange Eda2r (gene Eda2r, vs vehicle, 4 reps): 1.783
MeanFenamidone Efemp1 (gene Efemp1, DESeq mean, 4 reps): 94.4395
log2FoldChange Efemp1 (gene Efemp1, vs vehicle, 4 reps): 2.414
MeanFenamidone (gene Egfr): 148.93
log2FoldChange (gene Egfr): 1.836
MeanFenamidone Eif4ebp1 (gene Eif4ebp1, DESeq mean, 4 reps): 125.436
log2FoldChange Eif4ebp1 (gene Eif4ebp1, vs vehicle, 4 reps): 2.511
MeanFenamidone Elavl2 (gene Elavl2, DESeq mean, 4 reps): 207.006
log2FoldChange Elavl2 (gene Elavl2, vs vehicle, 4 reps): -1.527
MeanFenamidone Elovl1 (gene Elovl1, DESeq mean, 4 reps): 104.754
log2FoldChange Elovl1 (gene Elovl1, vs vehicle, 4 reps): 2.586
MeanFenamidone (gene Enox1): 25.4463
log2FoldChange (gene Enox1): -1.757
MeanFenamidone (gene Epas1): 154.593
log2FoldChange (gene Epas1): 2.42
MeanFenamidone Ephx1 (gene Ephx1, DESeq mean, 4 reps): 789.724
log2FoldChange Ephx1 (gene Ephx1, vs vehicle, 4 reps): 1.959
MeanFenamidone (gene Epm2aip1): 711.569
log2FoldChange (gene Epm2aip1): -0.9776
MeanFenamidone (gene Etfb): 102.831
log2FoldChange (gene Etfb): 1.903
MeanFenamidone (gene Evc): 45.1413
log2FoldChange (gene Evc): 1.984
MeanFenamidone F2r (gene F2r, DESeq mean, 4 reps): 1216.46
log2FoldChange F2r (gene F2r, vs vehicle, 4 reps): 2.012
MeanFenamidone F3 (gene F3, DESeq mean, 4 reps): 324.561
log2FoldChange F3 (gene F3, vs vehicle, 4 reps): 2.464
MeanFenamidone (gene Fam78b): 119.127
log2FoldChange (gene Fam78b): -1.289
MeanFenamidone Fam163b (gene Fam163b, DESeq mean, 4 reps): 135.664
log2FoldChange Fam163b (gene Fam163b, vs vehicle, 4 reps): -1.491
MeanFenamidone Fam178a (gene Fam178a, DESeq mean, 4 reps): 780.387
log2FoldChange Fam178a (gene Fam178a, vs vehicle, 4 reps): 1.493
MeanFenamidone Fat1 (gene Fat1, DESeq mean, 4 reps): 2188.76
log2FoldChange Fat1 (gene Fat1, vs vehicle, 4 reps): 1.677
MeanFenamidone Fbn1 (gene Fbn1, DESeq mean, 4 reps): 159.478
log2FoldChange Fbn1 (gene Fbn1, vs vehicle, 4 reps): 2.303
MeanFenamidone Fbxo9 (gene Fbxo9, DESeq mean, 4 reps): 32.2944
log2FoldChange Fbxo9 (gene Fbxo9, vs vehicle, 4 reps): -2.181
MeanFenamidone Fermt2 (gene Fermt2, DESeq mean, 4 reps): 437.255
log2FoldChange Fermt2 (gene Fermt2, vs vehicle, 4 reps): 1.474
MeanFenamidone (gene Fgf13): 224.473
log2FoldChange (gene Fgf13): -1.202
MeanFenamidone Fgfr3 (gene Fgfr3, DESeq mean, 4 reps): 309.362
log2FoldChange Fgfr3 (gene Fgfr3, vs vehicle, 4 reps): 1.548
MeanFenamidone Fkbp9 (gene Fkbp9, DESeq mean, 4 reps): 763.489
log2FoldChange Fkbp9 (gene Fkbp9, vs vehicle, 4 reps): 1.78
MeanFenamidone Flna (gene Flna, DESeq mean, 4 reps): 4335.97
log2FoldChange Flna (gene Flna, vs vehicle, 4 reps): 1.783
MeanFenamidone Flnb (gene Flnb, DESeq mean, 4 reps): 1183.24
log2FoldChange Flnb (gene Flnb, vs vehicle, 4 reps): 2.364
MeanFenamidone Flnc (gene Flnc, DESeq mean, 4 reps): 270.515
log2FoldChange Flnc (gene Flnc, vs vehicle, 4 reps): 3.121
MeanFenamidone Fn1 (gene Fn1, DESeq mean, 4 reps): 2242.75
log2FoldChange Fn1 (gene Fn1, vs vehicle, 4 reps): 2.874
MeanFenamidone (gene Fzd7): 201.665
log2FoldChange (gene Fzd7): 1.705
MeanFenamidone Gad1 (gene Gad1, DESeq mean, 4 reps): 102.047
log2FoldChange Gad1 (gene Gad1, vs vehicle, 4 reps): -2.011
MeanFenamidone Gad2 (gene Gad2, DESeq mean, 4 reps): 49.2241
log2FoldChange Gad2 (gene Gad2, vs vehicle, 4 reps): -2.6503
MeanFenamidone (gene Gas6): 1188.11
log2FoldChange (gene Gas6): 1.393
MeanFenamidone (gene Gas7): 704.19
log2FoldChange (gene Gas7): -1.128
MeanFenamidone Gdf15 (gene Gdf15, DESeq mean, 4 reps): 107.196
log2FoldChange Gdf15 (gene Gdf15, vs vehicle, 4 reps): 3.431
MeanFenamidone (gene Glis2): 157.775
log2FoldChange (gene Glis2): 1.455
MeanFenamidone Gls (gene Gls, DESeq mean, 4 reps): 297.391
log2FoldChange Gls (gene Gls, vs vehicle, 4 reps): -1.569
MeanFenamidone Gm5424 (gene Gm5424, DESeq mean, 4 reps): 1293.84
log2FoldChange Gm5424 (gene Gm5424, vs vehicle, 4 reps): 2.267
MeanFenamidone (gene Gng2): 1878.98
log2FoldChange (gene Gng2): -1.047
MeanFenamidone Gpnmb (gene Gpnmb, DESeq mean, 4 reps): 552.991
log2FoldChange Gpnmb (gene Gpnmb, vs vehicle, 4 reps): 3.791
MeanFenamidone (gene Gpr22): 61.8379
log2FoldChange (gene Gpr22): -1.6935
MeanFenamidone Gpr88 (gene Gpr88, DESeq mean, 4 reps): 81.4648
log2FoldChange Gpr88 (gene Gpr88, vs vehicle, 4 reps): -2.268
MeanFenamidone Gpx1 (gene Gpx1, DESeq mean, 4 reps): 550.81
log2FoldChange Gpx1 (gene Gpx1, vs vehicle, 4 reps): 1.571
MeanFenamidone Grik3 (gene Grik3, DESeq mean, 4 reps): 96.3695
log2FoldChange Grik3 (gene Grik3, vs vehicle, 4 reps): -2.234
MeanFenamidone (DESeq mean normalized counts) (gene Grin1os, Fenamidone, 4 reps, vs matched vehicle): 76.6399
MeanFenamidone (gene Grm5): 468.182
log2FoldChange (gene Grm5): -1.139
MeanFenamidone Gss (gene Gss, DESeq mean, 4 reps): 95.0873
log2FoldChange Gss (gene Gss, vs vehicle, 4 reps): 2.127
MeanFenamidone Gstm1 (gene Gstm1, DESeq mean, 4 reps): 533.415
log2FoldChange Gstm1 (gene Gstm1, vs vehicle, 4 reps): 2.03
MeanFenamidone (gene Gtse1): 113.042
log2FoldChange (gene Gtse1): 1.636
MeanFenamidone Gxylt2 (gene Gxylt2, DESeq mean, 4 reps): 58.8169
log2FoldChange Gxylt2 (gene Gxylt2, vs vehicle, 4 reps): 2.562
MeanFenamidone Hbegf (gene Hbegf, DESeq mean, 4 reps): 726.667
log2FoldChange Hbegf (gene Hbegf, vs vehicle, 4 reps): 2.744
MeanFenamidone (gene Hivep2): 554.938
log2FoldChange (gene Hivep2): -0.989
MeanFenamidone Hmox1 (gene Hmox1, DESeq mean, 4 reps): 1318.42
log2FoldChange Hmox1 (gene Hmox1, vs vehicle, 4 reps): 3.72
MeanFenamidone Hspg2 (gene Hspg2, DESeq mean, 4 reps): 1082.79
log2FoldChange Hspg2 (gene Hspg2, vs vehicle, 4 reps): 3.326
MeanFenamidone Icam1 (gene Icam1, DESeq mean, 4 reps): 359.44
log2FoldChange Icam1 (gene Icam1, vs vehicle, 4 reps): 2.082
MeanFenamidone Igdcc4 (gene Igdcc4, DESeq mean, 4 reps): 745.33
log2FoldChange Igdcc4 (gene Igdcc4, vs vehicle, 4 reps): 1.594
MeanFenamidone Il1rap (gene Il1rap, DESeq mean, 4 reps): 123.358
log2FoldChange Il1rap (gene Il1rap, vs vehicle, 4 reps): 1.873
MeanFenamidone Inf2 (gene Inf2, DESeq mean, 4 reps): 157.523
log2FoldChange Inf2 (gene Inf2, vs vehicle, 4 reps): 1.741
MeanFenamidone (gene Irs1): 506.425
log2FoldChange (gene Irs1): 1.154
MeanFenamidone Itga3 (gene Itga3, DESeq mean, 4 reps): 452.545
log2FoldChange Itga3 (gene Itga3, vs vehicle, 4 reps): 2.403
MeanFenamidone Itga5 (gene Itga5, DESeq mean, 4 reps): 86.8768
log2FoldChange Itga5 (gene Itga5, vs vehicle, 4 reps): 3.801
MeanFenamidone Itga6 (gene Itga6, DESeq mean, 4 reps): 547.54
log2FoldChange Itga6 (gene Itga6, vs vehicle, 4 reps): 1.506
MeanFenamidone Itga7 (gene Itga7, DESeq mean, 4 reps): 82.7144
log2FoldChange Itga7 (gene Itga7, vs vehicle, 4 reps): 2.577
MeanFenamidone Itgav (gene Itgav, DESeq mean, 4 reps): 659.409
log2FoldChange Itgav (gene Itgav, vs vehicle, 4 reps): 1.938
MeanFenamidone Itgb1 (gene Itgb1, DESeq mean, 4 reps): 2073.15
log2FoldChange Itgb1 (gene Itgb1, vs vehicle, 4 reps): 1.665
MeanFenamidone (gene Kcnc2): 16.7005
log2FoldChange (gene Kcnc2): -1.836
MeanFenamidone Kcnh3 (gene Kcnh3, DESeq mean, 4 reps): 28.6602
log2FoldChange Kcnh3 (gene Kcnh3, vs vehicle, 4 reps): -2.172
MeanFenamidone Kcnv1 (gene Kcnv1, DESeq mean, 4 reps): 52.8142
log2FoldChange Kcnv1 (gene Kcnv1, vs vehicle, 4 reps): -2.08
MeanFenamidone (gene Kctd12): 687.782
log2FoldChange (gene Kctd12): -1.125
MeanFenamidone Kdelc2 (gene Kdelc2, DESeq mean, 4 reps): 146.187
log2FoldChange Kdelc2 (gene Kdelc2, vs vehicle, 4 reps): 1.909
MeanFenamidone Kif1c (gene Kif1c, DESeq mean, 4 reps): 782.878
log2FoldChange Kif1c (gene Kif1c, vs vehicle, 4 reps): 2.167
